Test results from US20150344535A1, “NEUROTROPHIN-TYROSINE KINASE RECEPTOR SIGNALING” (THE UNIVERSITY OF QUEENSLAND, priority 2012, published 2015).
“Also recorded” adds a separate entry of the source.

What was measured:
PC12 cells [1] = test: PC12 cell neurite outgrowth in response to NGF; type: cell-based
Description: (§1) To assess the effect of p75^NTR constructs (FIG. 2) or c29 peptide on TrkA-mediated neuritogenesis, transfected PC12 cells were grown in the presence of 100 ng/ml NGF for 3 days, with fresh medium and NGF treatments added on day 2. Cells were then imaged live on an Olympus (IX81) microscope fitted with a CO2 atmospheric chamber, using analySIS software. Four random images of 80-100 cells were taken for each treatment condition and images were determined by measuring polygon neurite length of all cells in each image. Data analysis was performed using Graphpad PRISM.
Once PC12 cells are fully differentiated, they become dependent on NGF for survival (Greene, 1978), but can survive if grown in the presence of lower concentrations of NGF (Greene and Tischler, 1976). To determine if c29 could potentiate TrkA-mediated signals, PC12 cells were cultured in the presence of NGF concentrations ranging from 1-100 ng/ml for 5 days, following serum starvation and pre-incubation with c29, scrambled control peptide or no peptide (FIG. 5A). […] Peptides (1 μM) were added to the cultures every 48 hours at the time of NGF addition and medium exchange.

PC12 cells [2] = test: PC12 cell neurite outgrowth in response to EGF; type: cell-based; conditions: vs no peptide or scrambled peptide
Description: as §1
To determine whether the effect of the c29 peptide on enhancement of neurite outgrowth was NGF and TrkA specific, we repeated the experiment using EGF to stimulate differentiation.

TrkAK538A = target: T1, TrkAK538A (Homo sapiens, UniProt P04629, K544A); test: NGF-FITC binding by flow cytometry, TrkAK538A-transfected HEK293 cells
T1 construct: expressed in transfected cells; host or cells: HEK293
Description: The NGF was conjugated to FITC by standard methods and detailed flow cytometry acquisition and analysis. For NGF-FITC conjugation 400 μg βNGF in 200 μl pH 8.5 NaHCO3 buffer was mixed with 5-10 μl of 10 mg/ml FITC in 100 μl DMSO for 10 hours at 4° C. on an orbital shaker set to 100 rpm. The excess FITC was removed by dialysis against 3 changes of 5 L of 10 mM Tris, 150 mM NaCl, 0.2% acetic acid, pH 8.2 for 24 hours at 4° C. Conjugate F/P characterization was determined by measuring absorbance at 280 nm and 495 nm according to manufacturer's instructions. Biological activity of the NGF-FITC conjugate was tested by performing PC12 cell neurite outgrowth assays unlabelled NGF, and comparing the levels of neuritogenesis. NGF-FITC conjugates were used within 4 weeks of synthesis.
For the flow cytometry NGF binding assays, fluorescence cell parameters of at least 20,000 events for PC12 cells and 100,000 events for HEK293 cells were acquired by flow cytometry list mode and measurements were performed on a single cell basis (with compensation for double event counting). Dead cells and debris were gated out of the analysis on the basis of forward scatter fluorescence, and mean, median and maximal fluorescence values of the gated cell populations were analysed using FACS Diva Software (Becton-Dickinson Biosciences) and FACS Express Software (Becton-Dickinson Biosciences).
Background fluorescence of HEK293 cells was non-transfected cells (±c29 or scrambled peptide treatment) treated with 26 nM NGF-FITC. For PC12 cells, the control population was cells that had not been treated with NGF-FITC. Analysis of real-time NGF-FITC receptor binding experiments was performed on 550,000-600,000 cells at 4° C. in serum free NB medium and binding kinetics were calculated from raw data files compressed to 50,000 binding events using FlowJo and MatLab Software. Data was plotted with the use of GraphPad Prism.
Only NGF-FITC preparations that promoted equivalent neurite outgrowth of PC12 cells to that of unlabelled NGF were used in binding experiments. To investigate NGF binding, PC12 or transfected HEK293 cells were serum starved for 4 hours, harvested, washed with Dulbecco's Modified Eagle Medium (DMEM), and counted. When used, c29 or scrambled peptide were added to cultures for the third hour of the serum starvation procedure. 1×10^7 cells/ml suspended in 500 μl of serum-free DMEM were incubated with 26 nM NGF-FITC on ice for 60 minutes before analysis. For binding competition assays, following 1 hour in NGF-FITC, cells were washed with ice-cold PBS containing 0.1% normal bovine serum and incubated on ice with unlabeled NGF at concentrations ranging from 100 pM to 10 μM for 30 minutes, then washed twice in PBS before being analysed on a BD Flow Cytometer FACS Scan (Becton-Dickinson).
To determine association rates, cells were harvested as above following serum starvation and peptide treatment, and were resuspended in 3 ml of serum-free Neurobasal (NB) medium containing […] (Invitrogen) and […] nonessential amino acids, prior to analysis on the flow cytometer. Cells were analysed for 30 seconds prior to the addition of 26 nM NGF-FITC, and then for 30 minutes in real time with an analysis rate of 200-300 events/sec.

TrkA and p75^NTR = test: Surface biotinylation of receptors in PC12 cells; type: cell-based; conditions: 1 μM peptide, with or without NGF
Description: FIG. 10: The juxtamembrane domain of p75^NTR increases the association of NGF to cells expressing TrkA. (A and B) Dose response graphs of the proportion (%) of PC12 cells with fluorescence intensity above background following treatment with 26 […] NGFFITC, a FITC-conjugated antibody to the extracellular domain of p75^NTR (A), or an antibody to TrkA (detected using an anti-rabbit Alexa 594 secondary) (B), after pretreatment with increasing concentrations of […] peptide. (n=3 experiments per data point; mean±SEM *p<0.05, **p<0.01) (C) Representative western blots (WB) of TrkA and p75^NTR present in streptavidin precipitates (surface biotin), or lysate flow through of PC12 cells that had been treated for 1 hour with NGF and/or c29 and scrambled (SC) peptide, prior to the surface proteins being labelled with biotin for 90 minutes on ice.

[3] = Fear extinction / return of fear in mice; type: in vivo, mouse; conditions: female mice, infusion into infralimbic prefrontal cortex, VEH RET vs C29 RET, FIG. 12
Source text: Baker-Andresen et al. Learn Mem. 2013 Apr. 15; 20(5):237-40.
Following fear conditioning (Example 17), exposure to the tone without the shock is termed extinction (removal of the memory).
Researchers can time the duration of this response. Repeated exposure to the tone without the shock is termed extinction (removal of the memory).

[4] = system: TrkB-expressing cortical neurons; test: Western blot of phosphorylated Erk1/2 in BDNF-treated cortical neurons; type: cell-based; conditions: E16 cultured cortical neurons, 15 minutes after BDNF treatment
[5] = 26 nM NGF-FITC 60 minutes, + c29 c.f. TrkAK538A alone

T1 sequence (P04629 33-796 K544A): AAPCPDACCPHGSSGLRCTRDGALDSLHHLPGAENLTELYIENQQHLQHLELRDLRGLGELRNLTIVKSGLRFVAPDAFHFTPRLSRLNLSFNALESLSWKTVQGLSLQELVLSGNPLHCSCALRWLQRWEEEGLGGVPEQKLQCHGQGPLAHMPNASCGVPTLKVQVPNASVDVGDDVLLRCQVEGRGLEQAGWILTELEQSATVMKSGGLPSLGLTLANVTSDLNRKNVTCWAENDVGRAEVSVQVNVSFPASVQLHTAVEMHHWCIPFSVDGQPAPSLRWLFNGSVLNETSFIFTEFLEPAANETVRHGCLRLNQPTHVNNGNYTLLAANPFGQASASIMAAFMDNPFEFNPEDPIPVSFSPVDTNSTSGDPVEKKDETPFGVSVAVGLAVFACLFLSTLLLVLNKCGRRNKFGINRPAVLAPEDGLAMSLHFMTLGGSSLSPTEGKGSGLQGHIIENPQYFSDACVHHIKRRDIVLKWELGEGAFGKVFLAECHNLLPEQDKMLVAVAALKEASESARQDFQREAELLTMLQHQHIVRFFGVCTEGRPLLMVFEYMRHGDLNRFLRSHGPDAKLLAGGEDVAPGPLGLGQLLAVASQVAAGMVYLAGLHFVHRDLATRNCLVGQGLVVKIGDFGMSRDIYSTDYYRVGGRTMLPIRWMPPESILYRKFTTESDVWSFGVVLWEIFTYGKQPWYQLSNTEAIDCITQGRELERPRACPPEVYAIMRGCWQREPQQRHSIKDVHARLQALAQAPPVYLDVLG
T1 sequence (P01139 122-239 partner limits assumed): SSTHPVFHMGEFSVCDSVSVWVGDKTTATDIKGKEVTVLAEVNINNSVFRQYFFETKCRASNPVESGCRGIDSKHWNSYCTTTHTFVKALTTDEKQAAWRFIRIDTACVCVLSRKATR

KRWNSCKQNKQGANSRPVNQTPPPEGEKL (c29- Fragment of p75ICD) [29 amino acid peptide of the p75NTR juxtamembrane Chopper domain; delivered to cells linked to PTD4 or disulfide-linked carrier]
neurite outgrowth (length) (PC12 cells [1]; 1 ng/ml NGF, day 5, peptide 1 μM): 20 μm
neurite length vs scrambled peptide or NGF alone (PC12 cells [1]; 1 ng/ml and 10 ng/ml NGF, day 5, peptide 1 μM): significantly longer neurites
median neurite length (PC12 cells [1]; 10 ng/ml NGF, day 5, peptide 1 μM): 60 μm
median neurite outgrowth (PC12 cells [1]; 100 ng/ml NGF, day 5, peptide 1 μM, vs untreated cultures): no difference
neurite growth (PC12 cells [1]; fragments incubated with PC12 cells and NGF, FIG. 16): stimulated neurite growth
neuritogenesis in EGF-treated cultures (PC12 cells [2]): no effect on neuritogenesis
% of cell population with FITC above background (TrkAK538A; [5]): 112.2 ± 5.3%
Maximal fluorescence per cell of the population (TrkAK538A; [5]): 128.0 ± 11.7%
Mean fluorescence per FITC-positive cell (TrkAK538A; [5]): 125.0 ± 12.1%
Median population fluorescence (TrkAK538A; [5]): 140.5 ± 21.3%
half time of NGF-FITC binding (TrkAK538A; 26 nM NGF-FITC, cells pre-treated with c29, average of 3 experiments): 3.6 min
faster association rate than untreated cells (TrkAK538A; Hill-Slope association curve fit): ~3 fold
total number of fluorescent cells, median, mean and maximal fluorescence (TrkAK538A; compared to control TrkAK538A-transfected cells): significantly increased
mean fluorescence of the population following receptor saturation, higher than untreated (TrkAK538A; ~20 minutes after NGF addition): at least 20%
surface or total receptor levels of TrkA and p75^NTR (TrkA and p75^NTR): no significant difference
return of fear [3]: prevents the return of fear; also recorded: blocked the return of fear
phosphorylated Erk1/2 in response to BDNF [4]: enhanced trophic signaling
